# Data from patent publication US6362369B1, “Phthalic acid diamide derivatives fluorine-containing aniline compounds as starting material, agricultural and horticultural insecticides, and a method for application of the insecticides” (Nihon Nohyaku Co., Ltd., priority 1997, dated 2002).
# Columns and labels:
# [1] = system: diamondback moth (Plutella xylostella); test: Insecticidal effect on diamondback moth (Test Example 1); assay type: in vivo; conditions: for Insecticidal effect (Test Example 1), judged from mortality / Insecticidal effect, Test Example 1: diamondback moth; for Insecticidal effect (Test Example 1), judged from mortality: judged by the criterion of Test Example 1; for Insecticidal effect on diamondback moth (Test Example 1), judged grade: mortality judged according to the criterion shown in Test Example 1
# Summary of the method: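 Triplicate groups of 10 insects were scored: six days after immersion of oviposited Chinese cabbage seedlings and holding at 25 °C post air-drying, hatched larvae were counted. Mortality derived from these counts and insecticidal effect judged by a set criterion.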
# [2] = system: rice leafroller (Cnaphalocrocis medinalis); test: Insecticidal effect on rice leafroller (Test Example 3); assay type: in vivo; conditions: 500 ppm, 25° C., humidity 70%; for Insecticidal effect (Test Example 3), judged from mortality / Insecticidal effect on rice leafroller (Test Example 3), judged grade: rice lamina dip; for Insecticidal effect (Test Example 3), judged from mortality: 4 days after inoculation; for Insecticidal effect, Test Example 3: rice lamina immersed; for Insecticidal effect, Test Example 3 / Insecticidal effect on rice leafroller (Test Example 3), judged grade: four days after inoculation; for Insecticidal effect on rice leafroller (Test Example 3), judged grade: third-instar larvae
# Description: Insecticidal effect on rice leafroller (Cnaphalocrocis medinalis)
# After air-drying, the lamina was placed in a plastic Petri dish with a diameter of 9 cm whose bottom had been covered with a wetted filter paper. The lamina was inoculated with third-instar larvae of rice leafroller, after which the dish was allowed to stand in a room thermostated at 25° C. and having a humidity of 70%. Four days after the inoculation, the dead and alive were counted and the insecticidal effect was judged according to the criterion shown in Test Example 1. The test was carried out with triplicate groups of 10 insects.
# [3] = third-instar larvae of rice leafroller
# [4] = mortality judged by criterion of Test Example 1
# [5] = rice leafroller third-instar larvae
# [6] = judged by the mortality criterion of Test Example 1
smiles,measurement,setting,value
CCN(CC)C(=O)c1c(F)cccc1C(=O)Nc1ccc(C(F)(F)C(F)(F)F)cc1F [compound 1530],"Insecticidal effect (Test Example 1), judged from mortality",[1],A (100)
same,"Insecticidal effect (Test Example 3), judged from mortality",[2]; [3],A (100)
Cc1cc(C(F)(F)C(F)(F)F)ccc1NC(=O)c1ccccc1C(=O)NC(C)(C)CO [compound 1381],"Insecticidal effect, Test Example 1",[1]; [4],A (100)
same,"Insecticidal effect, Test Example 3",[2]; [5],C (89-80)
CCCC(C)NC(=O)c1cccc(I)c1C(=O)Nc1ccc(C(F)(F)C(F)(F)F)cc1C (stereo not shown) [compound 1010],"Insecticidal effect, Test Example 1",[1]; [4],A (100)
same,"Insecticidal effect, Test Example 3",[2]; [5],A (100)
Cc1cc(C(F)(F)C(F)(F)F)ccc1NC(=O)c1cccc(Cl)c1C(=O)NC1CCCO1 (stereo not shown) [compound 1392],"Insecticidal effect, Test Example 1",[1]; [4],A (100)
same,"Insecticidal effect, Test Example 3",[2]; [5],A (100)
Cc1cc(OC(F)(F)C(F)C(F)(F)F)ccc1NC(=O)c1c(I)cccc1C(=O)NC(C)C (stereo not shown) [compound 456],"Insecticidal effect on diamondback moth (Test Example 1), judged grade",[1],A (100)
same,"Insecticidal effect on rice leafroller (Test Example 3), judged grade",[2],A (100)
Cc1cc(C(F)(F)C(F)(F)F)ccc1NC(=O)c1c(I)cccc1C(=O)N(C)Cc1ccccc1 [compound 1439],"Insecticidal effect, Test Example 1",[1]; [4],A (100)
same,"Insecticidal effect, Test Example 3",[2]; [5],C (89-80)
Cc1cc(C(F)(C(F)(F)F)C(F)(F)F)ccc1NC(=O)c1c(I)cccc1C(=O)NC(C)c1ccccn1 (stereo not shown) [compound 1774],"Insecticidal effect (Test Example 1), judged from mortality",[1],A (100)
same,"Insecticidal effect (Test Example 3), judged from mortality",[2]; [3],A (100)
Cc1cc(Oc2ccc(C(F)(F)F)cn2)ccc1NC(=O)c1c(Br)cccc1C(=O)NC(C)C [compound 335],"Insecticidal effect, Test Example 1",[1]; [6],A (100)
same,"Insecticidal effect, Test Example 3",[2]; [3],B (99-90)
COc1cc(NC(=O)c2cccc(I)c2C(=O)NC(C)C)ccc1OC(F)F [compound 384],"Insecticidal effect, Test Example 1",[1]; [6],A (100)
same,"Insecticidal effect, Test Example 3",[2]; [3],C (89-80)
CC(C)NC(=O)c1c(C(=O)Nc2ccccc2Br)cccc1[N+](=O)[O-] [compound 589],"Insecticidal effect on diamondback moth (Test Example 1), judged grade",[1],A (100)
same,"Insecticidal effect on rice leafroller (Test Example 3), judged grade",[2],A (100)
CCN(CC)C(=O)c1ccccc1C(=O)Nc1ccc(Cl)cc1C [compound 1752],"Insecticidal effect (Test Example 1), judged from mortality",[1],A (100)
same,"Insecticidal effect (Test Example 3), judged from mortality",[2]; [3],A (100)
CCN(CC)C(=O)c1c(C(=O)Nc2ccc(OC(F)(F)F)cc2)cccc1[N+](=O)[O-] [compound 1136],"Insecticidal effect, Test Example 1",[1]; [4],A (100)
same,"Insecticidal effect, Test Example 3",[2]; [5],A (100)
Cc1cccc(CNC(=O)c2c(Cl)cccc2C(=O)Nc2ccc(C(F)(F)C(F)(F)F)cc2C)c1 [compound 1339],"Insecticidal effect, Test Example 1",[1]; [4],A (100)
same,"Insecticidal effect, Test Example 3",[2]; [5],A (100)
Cc1c(Cl)cccc1NC(=O)c1c(F)cccc1C(=O)NC(C)C [compound 544],"Insecticidal effect on diamondback moth (Test Example 1), judged grade",[1],A (100)
same,"Insecticidal effect on rice leafroller (Test Example 3), judged grade",[2],A (100)
CCN(CC)C(=O)c1c(I)cccc1C(=O)Nc1ccc(OC(F)F)cc1C [compound 1555],"Insecticidal effect (Test Example 1), judged from mortality",[1],A (100)
same,"Insecticidal effect (Test Example 3), judged from mortality",[2]; [3],A (100)
CC(C)NC(=O)c1cccc(F)c1C(=O)Nc1ccc2c(c1)OCO2 [compound 580],"Insecticidal effect on diamondback moth (Test Example 1), judged grade",[1],A (100)
same,"Insecticidal effect on rice leafroller (Test Example 3), judged grade",[2],A (100)
CCCCc1cc(I)ccc1NC(=O)c1cccc(I)c1C(=O)NC(C)C [compound 966],"Insecticidal effect, Test Example 1",[1]; [4],A (100)
same,"Insecticidal effect, Test Example 3",[2]; [5],B (99-90)
Cc1cc(C(F)(F)C(F)(F)F)ccc1NC(=O)c1cccc(Cl)c1C(=O)NCc1ccc(Cl)cc1 [compound 1333],"Insecticidal effect, Test Example 1",[1]; [4],A (100)
same,"Insecticidal effect, Test Example 3",[2]; [5],A (100)
Cc1cc(Oc2ncc(C(F)(F)F)cc2Cl)ccc1NC(=O)c1c(Cl)cccc1C(=O)NC(C)C [compound 250],"Insecticidal effect, Test Example 1",[1]; [6],A (100)
same,"Insecticidal effect, Test Example 3",[2]; [3],D (79-50)
COc1ccc(NC(=O)c2cccc(I)c2C(=O)NC(C)C)c(C)c1 [compound 376],"Insecticidal effect, Test Example 1",[1]; [6],A (100)
same,"Insecticidal effect, Test Example 3",[2]; [3],A (100)
Cc1ccc(NC(=O)c2c(Br)cccc2C(=O)NC(C)C)c(C)c1OC(F)F [compound 320],"Insecticidal effect, Test Example 1",[1]; [6],A (100)
same,"Insecticidal effect, Test Example 3",[2]; [3],D (79-50)
Cc1ccc(Cl)cc1NC(=O)c1ccc2ccccc2c1C(=O)NC(C)C [compound 821],"Insecticidal effect on diamondback moth (Test Example 1), judged grade",[1],A (100)
same,"Insecticidal effect on rice leafroller (Test Example 3), judged grade",[2],A (100)
COc1ccc(NC(=O)c2c(Cl)cccc2C(=O)NC(C)C)c(C)c1 [compound 218],"Insecticidal effect, Test Example 1",[1]; [6],A (100)
same,"Insecticidal effect, Test Example 3",[2]; [3],C (89-80)
Cc1ccc(NC(=O)c2cccc([N+](=O)[O-])c2C(=O)NC(C)C)c(Cl)c1 [compound 656],"Insecticidal effect on diamondback moth (Test Example 1), judged grade",[1],A (100)
same,"Insecticidal effect on rice leafroller (Test Example 3), judged grade",[2],A (100)
Cc1cc(C(F)(F)C(F)(F)F)ccc1NC(=O)c1cccc(Cl)c1C(=O)NC(C)c1ccccc1 (stereo not shown) [compound 1321],"Insecticidal effect, Test Example 1",[1]; [4],A (100)
same,"Insecticidal effect, Test Example 3",[2]; [5],A (100)
CC(C)NC(=O)c1c(C(=O)Nc2ccccc2C(C)C)cccc1[N+](=O)[O-] [compound 603],"Insecticidal effect on diamondback moth (Test Example 1), judged grade",[1],B (99-90)
same,"Insecticidal effect on rice leafroller (Test Example 3), judged grade",[2],C (89-80)
Cc1cc(Oc2ccc(C(F)(F)F)cn2)ccc1NC(=O)c1c(F)cccc1C(=O)NC(C)C [compound 576],"Insecticidal effect on diamondback moth (Test Example 1), judged grade",[1],A (100)
same,"Insecticidal effect on rice leafroller (Test Example 3), judged grade",[2],C (89-80)
Cc1cc(F)ccc1NC(=O)c1c(I)cccc1C(=O)NC(C)C [compound 432],"Insecticidal effect, Test Example 1",[1]; [6],A (100)
same,"Insecticidal effect, Test Example 3",[2]; [3],A (100)
Cc1cc(C(F)(F)C(F)(F)F)ccc1NC(=O)c1cccc(Cl)c1C(=O)NCc1ccccc1C(F)(F)F [compound 1523],"Insecticidal effect (Test Example 1), judged from mortality",[1],A (100)
same,"Insecticidal effect (Test Example 3), judged from mortality",[2]; [3],A (100)
Cc1cc2oc(C(F)(F)F)nc2cc1NC(=O)c1cccc(I)c1C(=O)NC(C)C [compound 1641],"Insecticidal effect (Test Example 1), judged from mortality",[1],A (100)
same,"Insecticidal effect (Test Example 3), judged from mortality",[2]; [3],A (100)
Cc1cc(C(F)(F)C(F)(F)F)ccc1NC(=O)c1c(Cl)cccc1C(=O)NC1CCCO1 (stereo not shown) [compound 1393],"Insecticidal effect, Test Example 1",[1]; [4],A (100)
same,"Insecticidal effect, Test Example 3",[2]; [5],A (100)
COc1cc(NC(=O)c2c(I)cccc2C(=O)NC(C)C)ccc1OC(F)F [compound 450],"Insecticidal effect on diamondback moth (Test Example 1), judged grade",[1],A (100)
same,"Insecticidal effect on rice leafroller (Test Example 3), judged grade",[2],C (89-80)
CCCCNC(=O)c1cccc(I)c1C(=O)Nc1ccc(C(F)(F)C(F)(F)F)cc1C [compound 946],"Insecticidal effect, Test Example 1",[1]; [4],A (100)
same,"Insecticidal effect, Test Example 3",[2]; [5],A (100)
Cc1cccc(Cl)c1NC(=O)c1cccc([N+](=O)[O-])c1C(=O)NC(C)C [compound 666],"Insecticidal effect on diamondback moth (Test Example 1), judged grade",[1],A (100)
same,"Insecticidal effect on rice leafroller (Test Example 3), judged grade",[2],D (79-50)
Cc1cc(OC(F)(F)C(F)(F)Br)ccc1NC(=O)c1c(I)cccc1C(=O)NC(C)C [compound 444],"Insecticidal effect, Test Example 1",[1]; [6],A (100)
same,"Insecticidal effect, Test Example 3",[2]; [3],A (100)
C=CC(C)(C)NC(=O)c1cccc(Cl)c1C(=O)Nc1ccc(C(F)(F)C(F)(F)F)cc1C [compound 1589],"Insecticidal effect (Test Example 1), judged from mortality",[1],A (100)
same,"Insecticidal effect (Test Example 3), judged from mortality",[2]; [3],A (100)
CC(C)NC(=O)c1c(F)cccc1C(=O)Nc1ccc(OC(F)(F)F)cc1 [compound 475],"Insecticidal effect on diamondback moth (Test Example 1), judged grade",[1],A (100)
same,"Insecticidal effect on rice leafroller (Test Example 3), judged grade",[2],D (79-50)
CC(C)NC(=O)c1ccccc1C(=O)Nc1ccc2c(c1)OC(F)(F)O2 [compound 1099],"Insecticidal effect, Test Example 1",[1]; [4],A (100)
same,"Insecticidal effect, Test Example 3",[2]; [5],A (100)
Cc1cc(OC(F)F)ccc1NC(=O)c1cc(I)ccc1C(=O)NC(C)C [compound 1205],"Insecticidal effect, Test Example 1",[1]; [4],A (100)
same,"Insecticidal effect, Test Example 3",[2]; [5],A (100)
CC(C)NC(=O)c1ccc(Cl)cc1C(=O)Nc1ccc(F)c(F)c1 [compound 188],"Insecticidal effect, Test Example 1",[1]; [6],D (79-50)
same,"Insecticidal effect, Test Example 3",[2]; [3],D (79-50)
Cc1cc(F)ccc1NC(=O)c1c(Br)cccc1C(=O)NC(C)C [compound 314],"Insecticidal effect, Test Example 1",[1]; [6],A (100)
same,"Insecticidal effect, Test Example 3",[2]; [3],A (100)
